For experiment [1], the system named is trastuzumab. Briefly: Western blot of ITC covalent conjugation to trastuzumab chains. Format: biochemical. Conditions: reducing gel. As to the method: ITC conjugation to active lysine on either light chain […] proximal to NBS was confirmed by western blot as previously described (Alves NJ, et al., Langmuir. 2012; 28 (25): 9640-9648). The samples (20 nM in 1×SDS reducing buffer) were run on a 10% SDS-PAGE gel at 110 V for 50 min in the presence of a Tris-glycine running buffer. The samples were then transferred to a nitrocellulose membrane (Bio-Rad) at 90 V for 90 min in a 20% methanol transfer buffer. The membrane was blocked with a blocking buffer (5% (w/v) non-fat dry milk in Tris buffered Saline with 0.05% Tween 20 (TBS-T)) for 1 hour. After 1 hour, the membrane was washed once with TBS-T and followed by incubation with HRP-conjugated goat anti-FITC IgG (1:20,000 in blocking buffer) for 45 min. The membrane was washed with 3×TBS-T for 10 min to remove the unbound secondary detection antibodies and subsequently incubated with chemiluminescent HRP substrate for 5 min to detect the location at which lysine on either heavy or light chain is conjugated to cHBL molecules. A second SDS-PAGE gel was run concurrently and stained in Commassie blue staining solution (0.15% Coomassie R-250 (EMD chemicals), 10% acetic acid and 20% methanol in DI water) and destained in destaining solution (10% acetic acid, methanol, and 80% DI water) to confirm that all the proteins were transferred to the membrane. […]

Experiment [2] concerns trastuzumab. Nature of the experiment: Direct ELISA for selective binding of cHBL to trastuzumab. The conditions noted are these: 8 hours, 37° C., pH 7.4. As to the method:
ELISA was used to confirm selective binding of trast-cHBL to trastuzumab. […] FITC also reacted with trastuzumab at the same conditions except for pH; they were incubated in either PBS or carbonate-bicarbonate buffer. Trastuzumab without any covalent ligands was used as a negative control (pH 7.4). After an 8-hour reaction, all molecules were purified using Amicon Ultra-0.5 mL Centrifugal Filters to remove the unbound covalent ligands. Concentration of trastuzumab was determined by SpectraMax M5 plate reader. For ELISA, 96 well high-binding assay plate was coated with trastuzumab (0.5 nM in carbonate-bicarbonate buffer) overnight at 4° C. refrigerator. The next morning, the wells were washed with a washing buffer (0.05% Tween 20 in PBS) using AquaMax 2000 plate automatic washer (Molecular Devices) to remove unbound trastuzumab and blocked with blocking buffer (5% (w/v) BSA and 0.1% (v/v) Tween 20 in PBS) for 1 hour at room temperature. After 1 hour, the wells were washed and then incubated with goat anti-FITC IgG-HRP conjugate (1:20,000 in blocking buffer) for 1 hour. Amplex Red Hydrogen Peroxide/Peroxidase Assay kit was used to initiate enzymatic reaction and the fluorescence (λex=570 nm and λem=592 nm) was read by SpectraMax M5 plate reader.

For experiment [3], the target named is IgE^dansyl. Nature of the experiment: Fluorescence quenching binding of dansyl molecules to IgE^dansyl. Conditions: dissociation constants for hapten-Napht conjugates. The protocol:
To determine binding of HBI molecules to respective antibodies, we observed the quenching of tryptophan resides using a method previously described (Junutula JR, et al., Nat. Biotechnol. 2008; 26 (8): 925-932). Briefly, either IgE^dansyl or IgG^Penicillin was diluted into a non-binding 96-well dish at 40 nM in PBS. Then, HBI molecules which contained either a dansyl or DNP group were titrated into well and fluorescence (Ex. 280 nm, Em. 335) was observed using a SpectraMax M2 spectrophotometer. PBS and free tryptamine diluted to similar initial fluorescence values were used as controls to account for HBI fluorescence and non-specific quenching respectively.

The target of experiment [4] is nucleotide binding site (NBS) of IgEs. Nature of the experiment: Fluorescence quenching binding of NBS ligand. Conditions: monovalent affinity.
Experiment [5] concerns the target trastuzumab. Nature of the experiment: Fluorescence quenching assay with trastuzumab. The format is binding. Conditions: for Kd: fluorescence quenching, DNP-tagged ligands. As to the method: The binding constants (Kd) of monovalent ABS (trastuzumab binding peptide), NBS (naphthalene), and heterobivalent ligand (trast-napht) were determined using fluorescence quenching assay as previously described (Handlogten MW, et al., Chem Biol. 2011; 18 (9): 1179-1188). Briefly, ligands were titrated into trastuzumab (30 nM) as well as PBS and Indole-3-butyric acid (IBA) to exclude the effect of nonspecific interactions between DNP and tryptophan. Since DNP absorbs light at 335 nm and tryptophan emits light at 335 nm, the fluorescence of tryptophan is quenched by DNP. The fluorescence of tryptophan was read by SpectraMax M5 plate reader (Molecular Devices) at λex=280 nm and λem=335 nm with various concentrations of ligands. The fluorescence signals dropped upon titration of ligands and apparent binding constants were calculated using a Hill's curve fit in OriginPro 2015.

Experiment [6] relates to NBS of trastuzumab. Nature of the experiment: Competitive ELISA of naphthalene-biotin binding to the NBS. Conditions: 2 and 10 μM, p<0.01. The protocol:
The specificity of naphthalene to NBS of IgG was confirmed using UV photo-cross-linking method and competitive sandwich ELISA. The wells of high binding plate were coated with goat-derived anti-human IgGs (1 nM in carbonate-bicarbonate buffer) overnight at 4° C. Trastuzumab (100 nM in PBS) prepared for ELISA described above was incubated with naphthalene-EG11-biotin (25 μM in PBS) for 1 hour at room temperature. PBS with only naphthalene-EG11-biotin was used as a negative control to normalize the binding curve. After 1 hour incubation, the molecules were exposed to UV light (1 J/cm^2) in a Spectroline UV select Series Cross-linker (Spectronics) to induce covalent photo-cross-linking of naphthalene to unbound NBS. The molecules were spun and 2 nM of the molecules were prepared in the blocking buffer. The wells coated with goat anti-human IgGs were washed and blocked with the blocking buffer for 1 hour. The wells were washed followed by incubation with the UV photo-cross-linked trastuzumab (2 nM) for 1 hour. […] An Amplex red assay kit was used to detect the fluorescence signals from the specific binding of naphthalene to NBS induced by UV photo-cross-linking. Since cHBL contains naphthalene, blocked NBS of trastuzumab is expected not to be photo-cross-linked to naphthalene-EGn-biotin, leading to relatively lower signals of fluorescence in the presence of cHBL.

The subject of experiment [7] is HER2/neu receptor on BT474 cells. Nature of the experiment: Cellular binding assay by flow cytometry with cHBL-tagged trastuzumab. Format: cell-based. As to the method:
Inhibition of trastuzumab by binding of trast-cHBL was confirmed by cellular binding assay with HER2-overexpressed breast and ovarian cancer cell lines (BT474 and SKOV3) using a Guava EasyCyte 8HT flow cytometer (Millipore). 0.5 mL of 50000 cells/mL were cultured on 2-well tissue culture plates overnight. The plate was kept on ice for 30 min to avoid receptor internalization. The wells were washed with a blocking buffer (1.5% BSA in PBS) and incubated with trastuzumab that had been previously incubated with trast-cHBL at various concentrations in the same fashion as the ELISA experiments for 1 hour on ice. The wells were washed once and incubated with Alexa Fluor 647-conjugated goat anti-human IgG (1:500 in blocking buffer) for 1 hour on ice. The wells were washed once with blocking buffer and the cells were gently scraped to run flow cytometer. Green (FITC) and Red2 (Alexa fluorophore with λem=667 nm) fluorescence were read to confirm trast-cHBL binding. Trastuzumab without any ligands and trastuzumab—FITC conjugate were used as positive controls and the cells with Alexa Flour 647-conjugated secondary antibody and without trastuzumab were used as negative controls.

Ends that are not written are not given here.

On to “Trast-ITC: trast-cHBL molecule where the napht moiety was omitted (LLGPYELWELSH)”, for which the antibody chain conjugated result in experiment [1] was “conjugated nearly equally to either heavy (50 kDa) or light chain”.
For “Rituximab-cHBL: orthogonal cHBL with rituximab binding peptide WPRWLEN”, the “binding to trastuzumab (direct ELISA)” value in experiment [2] was “not selective to trastuzumab up to 20 μM”.
In experiment [3], Dansyl had a Kd of 29.9 ± 10 nM.
On to `O=C(O)Cc1ccc2ccccc2c1` [2-naphteleneacetic acid], for which the results for the Kd in experiment [4] and in experiment [4] (listed as 2-naphthaleneacetic acid) were 1800 ± 300 nM and 2000 nM, respectively.
For “Trast-Napht-DNP: trastuzumab binding peptide conjugated to napht with ethylene glycol spacer, DNP tagged (LLGPYELWELSH; also: conjugated to napht with ethylene glycol spacer, DNP tagged)”, the Kd in experiment [5] was 46 ± 6 nM; in experiment [5] (listed as Trast-napht-DNP), 46.6 ± 6 nM. Moreover, the “fold increase in observed affinity on conjugation to napht” value in experiment [5] (napht with ethylene glycol spacer) is given as “over 4 fold”.
For the compound “Trast-cHBL: trastuzumab-specific cHBL with peptide LLGPYELWELSH, napht, ITC and fluorescein tag (not fully specified; also: cHBL with napht, ITC and fluorescein tag)”, the “binding to trastuzumab (direct ELISA)” value in experiment [2] was “significant increase in binding over trastuzumab-ITC at 1 μM”. Moreover, in experiment [6], the “naphthalene-biotin binding after cHBL incubation” value was “significantly less naphthalene binding”. The antibody chain conjugated result in experiment [1] is given as “preferentially conjugated to light chain”. Moreover, the “cHBL concentration at which FITC signal saturates” value in experiment [7] is 2 µM. Besides, in experiment [7] (1 μM cHBL), the “FITC signal, percent of maximum” value is reported as “approximately 50%” and the “HER2 binding (Alexa 647 signal)” value is reported as “no significant reduction in HER2 binding”. In addition, the “HER2 binding retained (Alexa 647 signal)” value in experiment [7] (2 μM cHBL) was “approximately 75%”. Besides, the “HER2 binding (Alexa 647 signal)” value in experiment [7] (10 μM cHBL) is reported as “HER2 binding drops drastically”.
As for “Trast-DNP: trastuzumab binding peptide tagged with DNP (LLGPYELWELSH; also: tagged with DNP)”, the Kd in experiment [5] amounted to 200 ± 14 nM.
With “LLGPYELWELSH [Trastuzumab binding peptide, reference compound]”, in experiment [5], the Kd stood at 200 ± 14 nM.

The values are drawn from patent US20240343835A1, “COVALENT HETEROBIVALENT ANTIBODY INHIBITORS AND LIGANDS” (UNIVERSITY OF NOTRE DAME DU LAC, priority 2015, published 2024).
